Measurements: US12139486B2, “Octahydro fused azadecalin glucocorticoid receptor modulators” (Corcept Therapeutics, Inc., priority 2013, dated 2024)

Tests used:
human recombinant GR = target: T1, human recombinant GR (Homo sapiens, UniProt P04150); experiment: Human Glucocorticoid Receptor (GR) Fluorescence Polarisation (FP) Binding Assay; conditions: Ki from IC50 by ligand depletion correction; displacement of Fluorome GS Red
T1 construct: purchased PanVera P2812
T1 sequence (P04150 1-777): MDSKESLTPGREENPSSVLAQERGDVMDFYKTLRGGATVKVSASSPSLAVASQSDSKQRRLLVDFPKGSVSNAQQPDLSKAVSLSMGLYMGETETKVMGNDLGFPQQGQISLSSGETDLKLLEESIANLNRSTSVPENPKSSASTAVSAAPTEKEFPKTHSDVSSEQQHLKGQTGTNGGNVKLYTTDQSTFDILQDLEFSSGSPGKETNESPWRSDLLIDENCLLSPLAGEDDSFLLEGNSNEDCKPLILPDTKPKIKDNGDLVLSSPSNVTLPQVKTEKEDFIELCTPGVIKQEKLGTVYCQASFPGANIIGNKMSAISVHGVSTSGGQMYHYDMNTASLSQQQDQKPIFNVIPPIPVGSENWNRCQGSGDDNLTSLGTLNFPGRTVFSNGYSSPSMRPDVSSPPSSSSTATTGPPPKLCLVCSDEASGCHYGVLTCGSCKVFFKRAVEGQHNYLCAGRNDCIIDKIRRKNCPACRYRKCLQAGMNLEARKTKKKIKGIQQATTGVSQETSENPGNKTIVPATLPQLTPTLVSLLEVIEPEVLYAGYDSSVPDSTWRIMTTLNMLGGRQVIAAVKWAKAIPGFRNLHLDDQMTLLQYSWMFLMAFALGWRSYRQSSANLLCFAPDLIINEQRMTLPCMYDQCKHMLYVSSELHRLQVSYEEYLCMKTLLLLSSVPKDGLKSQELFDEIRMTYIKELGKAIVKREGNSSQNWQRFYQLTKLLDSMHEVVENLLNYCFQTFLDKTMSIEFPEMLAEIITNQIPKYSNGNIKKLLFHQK
Experimental: The following is a description of a FP assay for measuring compound inhibition of labelled glucocorticoid binding to the human recombinant GR.
The binding affinity of test compounds was determined using a FP binding assay using human recombinant GR (PanVera P2812) and a fluorescent labelled glucocorticoid ligand (Fluorome GS Red) (PanVera P2894). The presence of inhibitors prevents the formation of a GS Red/GR complex resulting in a decrease in the measured polarisation value. The change in polarisation value in the presence of test compounds is used to calculate the binding affinity of the compound for GR.
This assay was performed in 384 well, black, round-bottom, polypropylene micro titre plates in a final volume of 20 μl. The assay contained 5 μl 1 nM GR (final concentration), 5 μl 0.5 nM Fluorome GS Red (final concentration) in the presence of 10p test compounds. Positive control wells (high polarisation) receive, 10 μl 2% (v:v) DMSO vehicle (1% (v/v) final concentration)+5 μl 1 nM GR and 5 μl 0.5 nM Fluorome GS Red. […] Assay blank background wells (used for normalisation) receive 15 μl 1×GS screening buffer+5 μl GR.
For the IC50 determination (concentration of compound that displaces 50% of the bound GS Red), compounds were tested at eight different concentrations in duplicate in two independently performed experiments. Compounds were prepared as solubilised solids at 10 mM in DMSO. On the day of assay, an 8 point half-log serial dilution (55 μl DMSO+25 μl compound solution) was prepared. A 1:50 dilution (1 μl compound solution+49 μl 1×GR screening buffer) was prepared for each compound. The compounds were prepared at 2× final assay concentration.
The plates were mixed and incubated for 4 hour at room temperature. FP was measured using an Envision Excite plate reader with 535 nm excitation and 590 nm emission interference filters.
Milli-polarisation (mP) values were calculated using the below equation: mP=1000*(S−G*P)/(S+G*P) where S and P are assay blank background subtracted fluorescence units, G=G-factor (1.07).
Compound IC50 values were calculated by plotting a [compound] v. % inhibition curve and fitting the data to a 4-parameter logistic fit equation.
10×GR screening buffer (100 mM potassium phosphate pH 7.4, 200 mM Na2MoO4, 1 mM EDTA, 20% (v/v) DMSO). To prepare 1×GR screening buffer, combine 1 ml 10×GR screening buffer (PanVera P2814)+1 ml stabilising peptide (PanVera P2815)+7.95 ml 4° C. MQ water. Add 50p 1M DTT, vortex and place on ice until use.

glucocorticoid receptor = target: T2, glucocorticoid receptor (Homo sapiens, UniProt P04150); experiment: HepG2 Tyrosine Aminotransferase (TAT) Assay; assay type: cell-based
T2 construct: endogenous in cells; host or cells: HepG2
T2 sequence (P04150 1-777): T1 sequence (P04150 1-777)
Experimental: Glucocorticoid mediated activation of TAT occurs by transactivation of glucocorticoid response elements in the TAT promoter by glucocorticoid receptor-agonist complex.
HepG2 cells were cultured using MEME media supplemented with 10% (v/v) foetal bovine serum; 2 mM L-glutamine and 1% (v/v) NEAA at 37° C., 5%/95% (v/v) CO2/air.
Compounds were serially half log diluted in 100% (v/v) dimethylsulphoxide from a 10 mM stock.
HepG2 cells were then lysed with 30 μl of cell lysis buffer containing a protease inhibitor cocktail for 15 minutes at 4° C. […] After 2 hours incubation at 37° C. the reaction was terminated by the addition of 15 μl of 10 M aqueous potassium hydroxide solution, and the plates incubated for a further 30 minutes at 37° C.
[compound] and fitting the data to a 4 parameter logistic equation.

Ki (human recombinant GR) [µM] | Ki (glucocorticoid receptor) [µM] | SMILES
< 0.0005 | < 0.02 | CCCn1cc(S(=O)(=O)N2CC[C@H]3Cc4c(cnn4-c4ccc(F)cc4)C[C@]3(C(=O)c3cc(C(F)(F)F)ccn3)C2)cn1 [Example 2D, ((4aR,8aS)-1-(4-fluorophenyl)-6-((1-propyl-1H-pyrazol-4-yl)sulfonyl)-4,4a,5,6,7,8,8a,9-octahydro-1H-pyrazolo[3,4-g]isoquinolin-4a-yl)(4-(trifluoromethyl)pyridin-2-yl)methanone]
< 0.0005 | 0.02 to 0.1 | CCn1ncc(S(=O)(=O)N2CC[C@H]3Cc4c(cnn4-c4ccc(F)cc4)C[C@]3(C(=O)c3ccccn3)C2)n1 [Example 2AB, ((4aR,8aS)-6-((2-ethyl-2H-1,2,3-triazol-4-yl)sulfonyl)-1-(4-fluorophenyl)-4,4a,5,6,7,8,8a,9-octahydro-1H-pyrazolo[3,4-g]isoquinolin-4a-yl)(pyridin-2-yl)methanone]
0.0005 to 0.001 | 0.02 to 0.1 | Cn1ccc(S(=O)(=O)N2CC[C@H]3Cc4c(cnn4-c4ccc(F)cc4)C[C@]3(C(=O)c3cc(C(F)(F)F)ccn3)C2)n1 [Example 2I, ((4aR,8aS)-1-(4-fluorophenyl)-6-((1-methyl-1H-pyrazol-3-yl)sulfonyl)-4,4a,5,6,7,8,8a,9-octahydro-1H-pyrazolo[3,4-g]isoquinolin-4a-yl)(4-(trifluoromethyl)pyridin-2-yl)methanone]
< 0.0005 | 0.02 to 0.1 | CCCn1ncc(S(=O)(=O)N2CC[C@H]3Cc4c(cnn4-c4ccc(F)cc4)C[C@]3(C(=O)c3cscn3)C2)n1 [Example 2S, ((4aR,8aS)-1-(4-fluorophenyl)-6-((2-propyl-2H-1,2,3-triazol-4-yl)sulfonyl)-4,4a,5,6,7,8,8a,9-octahydro-1H-pyrazolo[3,4-g]isoquinolin-4a-yl)(thiazol-4-yl)methanone]
< 0.0005 | < 0.02 | CCCn1cc(S(=O)(=O)N2CC[C@H]3Cc4c(cnn4-c4ccc(F)cc4)C[C@]3(C(=O)c3nccs3)C2)cn1 [Example 2E, ((4aR,8aS)-1-(4-fluorophenyl)-6-((1-propyl-1H-pyrazol-4-yl)sulfonyl)-4,4a,5,6,7,8,8a,9-octahydro-1H-pyrazolo[3,4-g]isoquinolin-4a-yl)(thiazol-2-yl)methanone]
> 0.001 | 0.02 to 0.1 | O=C(c1ccccn1)[C@]12Cc3cnn(-c4ccc(F)cc4)c3C[C@@H]1CCN(S(=O)(=O)c1ccc(F)c(F)c1)C2 [Example 1C, ((4aR,8aS)-6-((3,4-difluorophenyl)sulfonyl)-1-(4-fluorophenyl)-4,4a,5,6,7,8,8a,9-octahydro-1H-pyrazolo[3,4-g]isoquinolin-4a-yl)(pyridin-2-yl)methanone]
< 0.0005 | < 0.02 | CC(C)n1ncc(S(=O)(=O)N2CC[C@H]3Cc4c(cnn4-c4ccc(F)cc4)C[C@]3(C(=O)c3cscn3)C2)n1 [Example 2AJ, ((4aR,8aS)-1-(4-fluorophenyl)-6-((2-isopropyl-2H-1,2,3-triazol-4-yl)sulfonyl)-4,4a,5,6,7,8,8a,9-octahydro-1H-pyrazolo[3,4-g]isoquinolin-4a-yl)(thiazol-4-yl)methanone]
< 0.0005 | < 0.02 | Cc1ccnc(C(=O)[C@]23Cc4cnn(-c5ccc(F)cc5)c4C[C@@H]2CCN(S(=O)(=O)c2cnn(C)n2)C3)c1 [Example 2R, ((4aR,8aS)-1-(4-fluorophenyl)-6-((2-methyl-2H-1,2,3-triazol-4-yl)sulfonyl)-4,4a,5,6,7,8,8a,9-octahydro-1H-pyrazolo[3,4-g]isoquinolin-4a-yl)(4-methylpyridin-2-yl)methanone]
> 0.001 | 0.02 to 0.1 | CN1CCOc2cc(S(=O)(=O)N3CC[C@H]4Cc5c(cnn5-c5ccc(F)cc5)C[C@]4(C(=O)c4ccccn4)C3)cnc21 [Example 2V, ((4aR,8aS)-1-(4-fluorophenyl)-6-((4-methyl-3,4-dihydro-2H-pyrido[3,2-b][1,4]oxazin-7-yl)sulfonyl)-4,4a,5,6,7,8,8a,9-octahydro-1H-pyrazolo[3,4-g]isoquinolin-4a-yl)(pyridin-2-yl)methanone]
> 0.001 | 0.02 to 0.1 | Cn1cc(S(=O)(=O)N2CC[C@H]3Cc4c(cnn4-c4ccc(F)cc4)C[C@]3(C(=O)c3cc(C(F)(F)F)ccn3)C2)nn1 [Example 2P, ((4aR,8aS)-1-(4-fluorophenyl)-6-((1-methyl-1H-1,2,3-triazol-4-yl)sulfonyl)-4,4a,5,6,7,8,8a,9-octahydro-1H-pyrazolo[3,4-g]isoquinolin-4a-yl)(4-(trifluoromethyl)pyridin-2-yl)methanone]
> 0.001 | 0.02 to 0.1 | O=C(c1ccccn1)[C@]12Cc3cnn(-c4ccc(F)cc4)c3C[C@@H]1CCN(S(=O)(=O)c1ccc(Cl)c(Cl)c1)C2 [Example 1B, ((4aR,8aS)-6-((3,4-dichlorophenyl)sulfonyl)-1-(4-fluorophenyl)-4,4a,5,6,7,8,8a,9-octahydro-1H-pyrazolo[3,4-g]isoquinolin-4a-yl)(pyridin-2-yl)methanone]
0.0005 to 0.001 | < 0.02 | O=C(c1ccccn1)[C@]12Cc3cnn(-c4ccc(F)cc4)c3C[C@@H]1CCN(S(=O)(=O)c1cccc(C(F)(F)F)n1)C2 [Example 2Q, ((4aR,8aS)-1-(4-fluorophenyl)-6-((6-(trifluoromethyl)pyridin-2-yl)sulfonyl)-4,4a,5,6,7,8,8a,9-octahydro-1H-pyrazolo[3,4-g]isoquinolin-4a-yl)(pyridin-2-yl)methanone]
> 0.001 | 0.02 to 0.1 | CCn1nccc1S(=O)(=O)N1CC[C@H]2Cc3c(cnn3-c3ccc(F)cc3)C[C@]2(C(=O)c2cc(C(F)(F)F)ccn2)C1 [Example 2L, ((4aR,8aS)-6-((1-ethyl-1H-pyrazol-5-yl)sulfonyl)-1-(4-fluorophenyl)-4,4a,5,6,7,8,8a,9-octahydro-1H-pyrazolo[3,4-g]isoquinolin-4a-yl)(4-(trifluoromethyl)pyridin-2-yl)methanone]
> 0.001 | 0.02 to 0.1 | O=C(c1ccccn1)[C@]12Cc3cnn(-c4ccc(F)cc4)c3C[C@@H]1CCN(S(=O)(=O)c1cccc(F)c1)C2 [Example 2F, ((4aR,8aS)-1-(4-fluorophenyl)-6-((3-fluorophenyl)sulfonyl)-4,4a,5,6,7,8,8a,9-octahydro-1H-pyrazolo[3,4-g]isoquinolin-4a-yl)(pyridin-2-yl)methanone]
 | < 0.02 | CCn1ncc(S(=O)(=O)N2CC[C@H]3Cc4c(cnn4-c4ccc(F)cc4)C[C@]3(C(=O)c3cscn3)C2)n1 [Example 2AK, ((4aR,8aS)-6-((2-ethyl-2H-1,2,3-triazol-4-yl)sulfonyl)-1-(4-fluorophenyl)-4,4a,5,6,7,8,8a,9-octahydro-1H-pyrazolo[3,4-g]isoquinolin-4a-yl)(thiazol-4-yl)methanone]
